Test results reported in BindingDB's records for doi:10.1021/jm0503751 (University of Dublin, 2006).

Columns and labels:
[1] = biological target: T1, Alpha-1B adrenergic receptor (Mus musculus, UniProt Q05D47)
T1 sequence (Q05D47 whole entry): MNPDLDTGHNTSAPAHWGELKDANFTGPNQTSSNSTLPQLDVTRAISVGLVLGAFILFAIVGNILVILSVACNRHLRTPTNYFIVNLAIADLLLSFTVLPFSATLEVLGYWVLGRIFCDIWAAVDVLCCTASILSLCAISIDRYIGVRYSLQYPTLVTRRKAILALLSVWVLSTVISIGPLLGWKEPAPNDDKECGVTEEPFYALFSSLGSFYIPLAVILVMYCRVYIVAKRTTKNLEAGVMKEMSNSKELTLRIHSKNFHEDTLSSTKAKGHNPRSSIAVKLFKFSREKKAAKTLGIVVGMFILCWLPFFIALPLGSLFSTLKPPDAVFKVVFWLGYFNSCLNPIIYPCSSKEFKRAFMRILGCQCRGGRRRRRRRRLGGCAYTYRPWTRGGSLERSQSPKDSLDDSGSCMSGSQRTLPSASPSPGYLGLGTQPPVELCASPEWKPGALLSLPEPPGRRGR

[2] = biological target: T2, Alpha-1A adrenergic receptor (Homo sapiens, UniProt P35348)
T2 sequence (P35348 whole entry): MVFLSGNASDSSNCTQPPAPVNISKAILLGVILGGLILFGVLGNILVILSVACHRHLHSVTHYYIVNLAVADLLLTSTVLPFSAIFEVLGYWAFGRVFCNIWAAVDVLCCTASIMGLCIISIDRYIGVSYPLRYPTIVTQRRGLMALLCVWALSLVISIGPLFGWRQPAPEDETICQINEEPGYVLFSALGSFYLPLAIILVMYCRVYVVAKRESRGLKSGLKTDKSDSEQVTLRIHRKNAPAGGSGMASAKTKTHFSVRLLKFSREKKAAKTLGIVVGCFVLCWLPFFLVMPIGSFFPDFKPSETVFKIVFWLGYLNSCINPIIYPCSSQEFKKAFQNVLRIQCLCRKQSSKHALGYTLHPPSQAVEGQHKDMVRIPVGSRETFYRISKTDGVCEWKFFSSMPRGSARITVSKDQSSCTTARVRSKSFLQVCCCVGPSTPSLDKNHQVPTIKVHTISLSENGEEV

SMILES | Ki [1] [nM] | Ki [2] [nM]
COc1cc2nc(N(C)CCCNC(=O)C3CCCO3)nc(N)c2cc1OC (centres undefined) [N-{3-[(4-amino-6,7-dimethoxyquinazolin-2-yl)(methyl)amino]propyl}tetrahydrofuran-2-carboxamide] | 10 | –
COc1ccccc1N1CCN(CCCNc2c(C)c(=O)n(C)c(=O)n2C)CC1 [Urapidil-5-methyl] | 40 | 10
COc1cc2nc(N3CCN(C(=O)C4COc5ccccc5O4)CC3)nc(N)c2cc1OC (centres undefined) [UK 33,274] | 1 | –
Cc1c[nH]c(=O)n(CCCN2CCN(c3ccc(F)cc3OCC(F)(F)F)CC2)c1=O | 79 | 100
COc1cc2nc(N3CCN(C(=O)C4CCCO4)CC3)nc(N)c2cc1OC (centres undefined) [6,7-dimethoxy-2-[4-(tetrahydrofuran-2-ylcarbonyl)piperazin-1-yl]quinazolin-4-amine] | 2 | –
CC(C)(Cc1c[nH]c2ccc(Cl)cc12)NCCOc1ccccc1OCC1CC1 | 16 | 16
